A value given as a limit tells only on which side of the number the result lay.

Series [1] deals with Asexual parasites of P. falciparum strain 3D7. Briefly: In vitro drug activity on asexual parasites (SYBR Green assay). In kind it is cell-based, Plasmodium falciparum. In outline:
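3D7 parasites at 0.5% parasitemia and 2% hematocrit were exposed to drugs (DMSO ≤0.5%) for 72 h under standard culture conditions, in duplicate. After freeze-thaw lysis, SYBR Green I lysis buffer was added for 30 min at room temperature, and fluorescence was read at 490/520 nm.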

The next series deals with mTOR (Homo sapiens, UniProt P42345). Briefly: mTOR activity (no method described). In kind it is biochemical.
Series [2] in a line: Microsomal stability (rat). The conditions noted are these: rat microsomes. In kind it is in vitro ADME.
The nature of a further series: Solubility at pH 7.4. In kind it is physicochemical.
Another series can be described thus: PAMPA permeability. In kind it is in vitro ADME.

`COc1cc(C(=O)NCCN2CCNCC2)ccc1-n1c(=O)ccc2cnc3ccc(-c4ccc(Cl)cc4)cc3c21` [Compound 257] displayed an EC50 in series [1] of 60.8 nM. Also, at mTOR, the mTOR stood at 2.719 µM. Also, the “Microsomal Stability (rat) T1/2” value in series [2] was above 30 min. In “Solubility at pH 7.4”, the “Sol @ pH 7.4” value is listed as above 84 ug/mL. In the series “PAMPA permeability”, the PAMPA Permeability worked out at 1.5 ×10⁻⁶ cm/s.

In series [1], `O=C(c1ccc(-n2c(=O)ccc3cnc4ccc(-c5ccc(OC6CCNCC6)cc5)cc4c32)cc1)N1CCOCC1` [Compound 219] came in with an EC50 of 371 nM. The compound further had a mTOR on mTOR of 3.288 µM. In series [2], the “Microsomal Stability (rat) T1/2” value is above 30 min. Besides, the “Sol @ pH 7.4” value in the series “Solubility at pH 7.4” is listed as 6.3 ug/mL. The compound further came in with a PAMPA Permeability in the series “PAMPA permeability” of 3.3 ×10⁻⁶ cm/s.

`O=C(c1ccc(-n2c(=O)ccc3cnc4ccc(-c5ccc6c(c5)CNC6)cc4c32)cc1)N1CCOCC1` [Compound 242] yielded an EC50 in series [1] of 489 nM. Further, the mTOR on mTOR is 0.373 µM. In addition, the “Microsomal Stability (rat) T1/2” value in series [2] is above 30 min. Further, the “Sol @ pH 7.4” value in “Solubility at pH 7.4” was above 74 ug/mL. Moreover, the PAMPA Permeability in “PAMPA permeability” was below 1 ×10⁻⁶ cm/s.

In series [1], `Cc1cc(C(=O)NC2CC2)ccc1-n1c(=O)ccc2cnc3ccc(-c4ccc(Cl)cc4)nc3c21` [Compound 247] yielded an EC50 of 81.8 nM. The mTOR at mTOR came out at 1.903 µM. Besides, in series [2], the “Microsomal Stability (rat) T1/2” value amounted to 16.7 min. The “Sol @ pH 7.4” value in “Solubility at pH 7.4” is recorded as below 1 ug/mL. Also, in “PAMPA permeability”, the PAMPA Permeability turned out to be 846 ×10⁻⁶ cm/s.

`COc1cc(C(=O)NCCN2CCCCC2)ccc1-n1c(=O)ccc2cnc3ccc(-c4ccc(Cl)cc4)cc3c21` [Compound 256] returned an EC50 in series [1] of 501 nM. Also, on mTOR, the mTOR worked out at 8.776 µM. The “Microsomal Stability (rat) T1/2” value in series [2] was 3.5 min. Besides, in “Solubility at pH 7.4”, the “Sol @ pH 7.4” value is below 1 ug/mL. The PAMPA Permeability in “PAMPA permeability” was found to be 664 ×10⁻⁶ cm/s.

As for `CC(C)NC(=O)c1ccc(-n2c(=O)ccc3cnc4ccc(-c5ccc(Cl)cc5)cc4c32)cc1` [Compound 213], the EC50 in series [1] amounted to 130 nM. The compound further registered a mTOR on mTOR of 1.299 µM. For the same compound, in series [2], the “Microsomal Stability (rat) T1/2” value stood at 18.9 min. Further, the “Sol @ pH 7.4” value in the series “Solubility at pH 7.4” is reported as below 1 ug/mL. Moreover, the PAMPA Permeability in “PAMPA permeability” is below 1 ×10⁻⁶ cm/s.

As for `Cc1cc(C(=O)NCCN2CCCC2)ccc1-n1c(=O)ccc2cnc3ccc(-c4ccc(F)cc4)cc3c21` [Compound 296], the midpoint of the response in series [1], the EC50, lay at 477 nM. At mTOR, the mTOR amounted to 18.6 µM. The “Microsomal Stability (rat) T1/2” value in series [2] worked out at 7.1 min. Besides, the “Sol @ pH 7.4” value in “Solubility at pH 7.4” turned out to be 0 ug/mL. This compound also displayed a PAMPA Permeability in “PAMPA permeability” of 510 ×10⁻⁶ cm/s.

In turn, `Cc1cc(C(=O)NCCCN2CCN(C)CC2)ccc1-n1c(=O)ccc2cnc3ccc(-c4ccc(Cl)cc4)cc3c21` [Compound 282] yielded an EC50 in series [1] of 71.4 nM. The mTOR on mTOR was 4.536 µM. In addition, in series [2], the “Microsomal Stability (rat) T1/2” value is reported as 4.1 min. Moreover, the “Sol @ pH 7.4” value in “Solubility at pH 7.4” is above 86 ug/mL. Moreover, the PAMPA Permeability in “PAMPA permeability” was found to be 598 ×10⁻⁶ cm/s.

Consider `CN(CCNC(=O)c1ccc(-n2c(=O)ccc3cnc4ccc(-c5ccc(Cl)cc5)cc4c32)cc1)c1ccccc1` [Compound 298], for which, in series [1], the EC50 worked out at 950 nM. The compound further came in with a mTOR on mTOR of 50 µM. Further, the “Microsomal Stability (rat) T1/2” value in series [2] is 1.5 min. Also, the “Sol @ pH 7.4” value in “Solubility at pH 7.4” was 0 ug/mL. Further, the PAMPA Permeability in the series “PAMPA permeability” was determined as 148 ×10⁻⁶ cm/s.

`O=C(NCCN1CCCC1)c1ccc(-n2c(=O)ccc3cnc4ccc(-c5ccc(Cl)cc5)cc4c32)cc1` [Compound 220] registered an EC50 in series [1] of 156 nM. The mTOR at mTOR came to 4.247 µM. In addition, in series [2], the “Microsomal Stability (rat) T1/2” value worked out at 12.6 min. Besides, in “Solubility at pH 7.4”, the “Sol @ pH 7.4” value is on record as 9.4 ug/mL. The PAMPA Permeability in “PAMPA permeability” came to 127 ×10⁻⁶ cm/s.

Regarding `CN(C)CCc1ccc(-c2ccc3ncc4ccc(=O)n(-c5ccc(C(=O)NC6CC6)cc5)c4c3c2)cc1` [Compound 241], in series [1], the EC50 was 335 nM. Besides, the mTOR on mTOR was 6.061 µM. Further, the “Microsomal Stability (rat) T1/2” value in series [2] is on record as above 30 min. The “Sol @ pH 7.4” value in “Solubility at pH 7.4” is recorded as above 74 ug/mL. This compound also had a PAMPA Permeability in the series “PAMPA permeability” of 18.6 ×10⁻⁶ cm/s.

Values taken from patent publication US11753408B2, “Compounds and method for blocking transmission of malarial parasite” (The United States of America, as represented by the …, priority 2016, dated 2023).
